Structures can show the parent of a compound that is named as a salt.
The compounds below were run on 2-phenyl-1,4-benzoquinone-induced writhing (assay: 2-phenyl-1,4-benzoquinone-induced writhing test in mice (Phenylquinone Writhing), analgesic activity). Details: Mus musculus, sc, read-out: Inhibition of Writing ED50.
Format: in vivo
From the text: Compounds of Formula I of the present invention, namely, compounds of Formulas II, III and IV are useful as analgesic agents due to their ability to alleviate pain in mammals. […] Exptl. Biol. Med., 95, 729 (1957)].
Compound CC1Nc2ccccc2N2CC3(CCN(C)CC3)c3cccc1c32 (stereo not shown) [1',6-Dimethyl-1,2,6,7-tetrahydro-spiro[indolo[1,7-ab][1,5]benzodiazepine-2,4'-piperidine]dihydrochloride] has an ED50 of 9.7 mg/kg.
With CC1=Nc2ccccc2N2CC3(CCN(C)CC3)c3cccc1c32 [1,2-Dihydro-1',6-dimethyl-spiro[indolo[1,7-ab][1,5]benzodiazepine-2,4'-piperidine]dihydrochloride] the ED50 was 4.7 mg/kg.
With CN1CCC2(CC1)CN1c3ccccc3N=Cc3cccc2c31 [1,2-Dihydro-1'-methyl-spiro[indolo[1,7-ab][1,5]benzodiazepine-2,4'-piperidine]dihydrochloride] the ED50 was 12.1 mg/kg.
In the case of CC1c2cccc3c2N(CC32CCN(C)CC2)c2ccccc2N1C(=O)CCN(C)C (stereo not shown) [7-(N,N-dimethyl-3-aminopropionyl)-1',6-dimethyl-1,2,6,7-tetrahydro-spiro[indolo[1,7-ab][1,5]benzodiazepine-2,4'-piperidine]dihydrobromide], the ED50 is reported as 28.4 mg/kg.
